According to publication PMC4303209, “A novel phosphatidylinositol 3-kinase (PI3K) inhibitor directs a potent FOXO-dependent, p53-independent cell cycle arrest phenotype characterized by the differential induction of a subset of FOXO-regulated genes” (Breast Cancer Research : BCR, 2014):

Test system: MCF-7 breast cancer cells
Assay: Microarray gene expression analysis (Agilent whole human genome 4 x 44K; compound vs DMSO, LIMMA log2 fold change)
Type: cell-based
Conditions: cell cycle genes

SMILES: Cn1ncc2c(N3CCOCC3)nc(-c3cccc(O)c3)nc21 [ETP-45658]
- CDC25B log2FC (Gene 994): -0.243
- CDC25C log2FC (Gene 995): 1.417
- CDC34 log2FC (Gene 997): 0.349
- CDC42 log2FC (Gene 998): 0.143
- CDK2 log2FC (Gene 1017): -0.519
- CDK3 log2FC (Gene 1018): -0.108
- CDK4 log2FC (Gene 1019): 0.113
- CDK5 log2FC (Gene 1020): -0.089
- CDK7 log2FC (Gene 1022): 0.920
- CDKN1A log2FC (Gene 1026): -1.401
- CDKN1B log2FC (Gene 1027): 1.129
- CDKN1C log2FC (Gene 1028): 0.689
- CDKN2A log2FC (Gene 1029): 0.240
- CDKN2D log2FC (Gene 1032): 0.891
- CDKN3 log2FC (Gene 1033): 0.104
- CENPA log2FC (Gene 1058): 0.094
- CENPE log2FC (Gene 1062): 1.101
- CENPF log2FC (Gene 1063): 1.562
- CETN2 log2FC (Gene 1069): 0.059
- CHD3 log2FC (Gene 1107): -0.048
- CHEK1 log2FC (Gene 1111): 0.461
- CKS1B log2FC (Gene 1163): 0.101
- CKS2 log2FC (Gene 1164): -0.752
- CLTC log2FC (Gene 1213): 0.237
- PLK3 log2FC (Gene 1263): -1.808
- ATF2 log2FC (Gene 1386): 0.857
- CREBL2 log2FC (Gene 1389): 0.823
- MAPK14 log2FC (Gene 1432): -0.291
- CSNK1A1 log2FC (Gene 1452): 0.166
- CSNK1D log2FC (Gene 1453): -0.308
- CSNK1E log2FC (Gene 1454): -0.533
- CSNK2A1 log2FC (Gene 1457): -0.545
- CTBP1 log2FC (Gene 1487): -0.371
- CTGF log2FC (Gene 1490): -0.597
- CYLD log2FC (Gene 1540): 0.499
- CYP27B1 log2FC (Gene 1594): -0.054
- DAPK3 log2FC (Gene 1613): -0.132
- DDB1 log2FC (Gene 1642): 0.227
- DDIT3 log2FC (Gene 1649): 2.364
- DDX3X log2FC (Gene 1654): -1.156
- DHCR24 log2FC (Gene 1718): -0.643
- DHFR log2FC (Gene 1719): 0.876
- DLG1 log2FC (Gene 1739): 0.053
- DMRT1 log2FC (Gene 1761): 0.148
- DYNC1I2 log2FC (Gene 1781): 0.828
- DNM2 log2FC (Gene 1785): -0.047
- DRD3 log2FC (Gene 1814): -0.082
- DUSP1 log2FC (Gene 1843): -0.931
- DUSP3 log2FC (Gene 1845): 0.560
- DYRK1A log2FC (Gene 1859): 0.448
- E2F1 log2FC (Gene 1869): -0.356
- E2F2 log2FC (Gene 1870): -0.581
- E2F3 log2FC (Gene 1871): -0.373
- E2F4 log2FC (Gene 1874): -0.621
- E2F5 log2FC (Gene 1875): 0.382
- E2F6 log2FC (Gene 1876): -0.321
- E4F1 log2FC (Gene 1877): 0.414
- ECT2 log2FC (Gene 1894): 1.058
- EDN3 log2FC (Gene 1908): -0.056
- EGF log2FC (Gene 1950): -0.024
- EGFR log2FC (Gene 1956): 0.311
- EIF4EBP1 log2FC (Gene 1978): -0.081
- EIF4G2 log2FC (Gene 1982): 0.237
- EMD log2FC (Gene 2010): -0.178
- ENSA log2FC (Gene 2029): -0.068
- EPS8 log2FC (Gene 2059): 0.516
- ERCC2 log2FC (Gene 2068): -0.566
- ERCC3 log2FC (Gene 2071): -0.084
- ERCC4 log2FC (Gene 2072): 0.186
- ERF log2FC (Gene 2077): 0.135
- ERH log2FC (Gene 2079): -0.238
- ERN1 log2FC (Gene 2081): -0.168
- ETS1 log2FC (Gene 2113): -0.590
- EZH2 log2FC (Gene 2146): 0.722
- FANCG log2FC (Gene 2189): -0.077
- FEN1 log2FC (Gene 2237): -0.980
- FER log2FC (Gene 2241): 0.332
- FGF2 log2FC (Gene 2247): 0.202
- FGF8 log2FC (Gene 2253): -0.131
- FGF10 log2FC (Gene 2255): 0.033
- FGFR1 log2FC (Gene 2260): -0.387
- FGFR3 log2FC (Gene 2261): -0.382
- FGFR2 log2FC (Gene 2263): 1.543
- FHL1 log2FC (Gene 2273): 0.046
- FOXC1 log2FC (Gene 2296): -0.876
- FOXM1 log2FC (Gene 2305): -0.360
- FLNA log2FC (Gene 2316): -0.229
- FNTB log2FC (Gene 2342): -0.574
- GAS1 log2FC (Gene 2619): 0.711
- GAS2 log2FC (Gene 2620): 0.183
- GAS6 log2FC (Gene 2621): -0.052
- GFI1 log2FC (Gene 2672): 0.062
- GNAI1 log2FC (Gene 2770): 1.186
- GNAI2 log2FC (Gene 2771): -0.343
- GNAI3 log2FC (Gene 2773): 0.669
- SFN log2FC (Gene 2810): -1.182
- GPR3 log2FC (Gene 2827): -0.277
- GPS1 log2FC (Gene 2873): -0.145
- GPS2 log2FC (Gene 2874): -0.087
- GSK3B log2FC (Gene 2932): -0.607
- GSPT1 log2FC (Gene 2935): -0.172
- MSH6 log2FC (Gene 2956): 0.235
- GTF2H1 log2FC (Gene 2965): 0.573
- H2AFX log2FC (Gene 3014): -1.128
- HCFC1 log2FC (Gene 3054): -0.769
- HDAC1 log2FC (Gene 3065): -0.487
- HDAC2 log2FC (Gene 3066): 0.164
- HGF log2FC (Gene 3082): -0.369
- HHEX log2FC (Gene 3087): -0.222
- FOXA1 log2FC (Gene 3169): 0.031
- HOXA13 log2FC (Gene 3209): 0.081
- HRAS log2FC (Gene 3265): -0.664
- PRMT2 log2FC (Gene 3275): 0.361
- HES1 log2FC (Gene 3280): -1.195
- HSF1 log2FC (Gene 3297): 0.106
- HSPA2 log2FC (Gene 3306): -1.351
- HSP90AA1 log2FC (Gene 3320): 1.066
- ID2 log2FC (Gene 3398): 1.025
- ID3 log2FC (Gene 3399): -0.237
- IFNG log2FC (Gene 3458): -0.055
- IGF1 log2FC (Gene 3479): 0.046
- IGF1R log2FC (Gene 3480): 0.075
- IGF2 log2FC (Gene 3481): 0.014
- IL1A log2FC (Gene 3552): -0.044
- IL1B log2FC (Gene 3553): -0.057
- IL8 log2FC (Gene 3576): -1.203
- IL12B log2FC (Gene 3593): -0.025
- ILF3 log2FC (Gene 3609): -0.460
- ILK log2FC (Gene 3611): -0.066
- INCENP log2FC (Gene 3619): -0.174
- ING2 log2FC (Gene 3622): 0.424
- INHA log2FC (Gene 3623): -0.101
- INSM1 log2FC (Gene 3642): -0.209
- INSR log2FC (Gene 3643): 0.664
- IRF6 log2FC (Gene 3664): 0.370
- ITGB1 log2FC (Gene 3688): 0.722
- JUN log2FC (Gene 3725): -0.912
- JUNB log2FC (Gene 3726): -0.596
- KIF11 log2FC (Gene 3832): 0.922
- KRT18 log2FC (Gene 3875): -0.481
- STMN1 log2FC (Gene 3925): 0.176
- LIF log2FC (Gene 3976): -1.818
- LIG1 log2FC (Gene 3978): -0.097
- LIG3 log2FC (Gene 3980): -0.509
- LLGL2 log2FC (Gene 3993): -0.345
- LRP5 log2FC (Gene 4041): -0.510
- MAD2L1 log2FC (Gene 4085): 0.081
- SMAD3 log2FC (Gene 4088): 0.254
- MCM3 log2FC (Gene 4172): -0.047
- MCM5 log2FC (Gene 4174): -0.158
- MCM7 log2FC (Gene 4176): 0.104
- MDM2 log2FC (Gene 4193): -0.059
- MDM4 log2FC (Gene 4194): 0.064
- RAB8A log2FC (Gene 4218): -0.531
- MIF log2FC (Gene 4282): 0.242
- MKI67 log2FC (Gene 4288): 0.040
